According to US20240148821A1, “PHARMACEUTICAL USE OF CYCLIC PEPTIDE COMPOUND” (CHUGAI SEIYAKU KABUSHIKI KAISHA, priority 2021, published 2024):
Numbered stars: 1 amine (or outer) side, 2 acyl side, 3 side chain; on linkers, the order of the positions; unused ones are H or OH. Bridge positions count the residues as written; N and C are the ends. Square brackets hold non-standard residues; d marks the D form. Peptide text beside a SMILES is read from it. * marks the point of attachment. hPhe(3-Cl-4-CF3) = N[C@@H](CCc1ccc(C(F)(F)F)c(Cl)c1)C(=O)O; hPhe(3-F,4-CF3) = N[C@@H](CCc1ccc(C(F)(F)F)c(F)c1)C(=O)O; NMePhe(4-CF3) = CN[C@@H](Cc1ccc(C(F)(F)F)cc1)C(=O)O; NMeAbu(4,4,4-F3) = CN[C@@H](CC(F)(F)F)C(=O)O; NMePhe(4-Cl) = CN[C@@H](Cc1ccc(Cl)cc1)C(=O)O; X51 = CN([C@@](C)(Cc1ccccc1)C(=O)[*:2])[*:1]; NMePhe(2-CN) = CN[C@@H](Cc1ccccc1C#N)C(=O)O; NMePhe(4-F) = CN[C@@H](Cc1ccc(F)cc1)C(=O)O; NMedβ3hAla = C[C@H](CC(=O)[*:2])N(C)[*:1]; X72 = O=C([C@@H]1Cc2ccccc2N1[*:1])[*:2]; NMeGly(cPent) = CN[C@H](C(=O)O)C1CCCC1; Phe(3-I) = N[C@@H](Cc1cccc(I)c1)C(=O)O; Pro(4,4-F2) = O=C(O)[C@@H]1CC(F)(F)CN1; NMeY = CN[C@@H](Cc1ccc(O)cc1)C(=O)O; NMeCha = CN[C@@H](CC1CCCCC1)C(=O)O; NMeCba = CN[C@@H](CC1CCC1)C(=O)O; NMeChg = CN[C@H](C(=O)O)C1CCCCC1; NMeD = CN[C@@H](CC(=O)O)C(=O)O; NMeL = CN[C@@H](CC(C)C)C(=O)O; NMeV = CN[C@H](C(=O)O)C(C)C; d(β3hA) = C[C@@H](N)CC(=O)O; Pip = O=C(O)[C@@H]1CCCCN1; NMeA = CN[C@@H](C)C(=O)O; Nle = CCCC[C@H](N)C(=O)O; Piperidide = C1CCN(*)CC1; Pyrrolidide = C1CCN(*)C1; dNMeA = CN[C@H](C)C(=O)O; Ac5c = NC1(C(=O)O)CCCC1; Aze = O=C(O)[C@@H]1CCN1; Sar = CNCC(=O)O

The molecules below were run on Human pancreatic cancer cell line AsPC-1 (G12D mutation Kras) (assay: AsPC-1 cell growth inhibition (AsPC-1 CGI)). Conditions: read-out: AsPC-1 cell growth inhibition, 50% growth inhibitory concentration (IC50 value); 96 hours, CellTiter-Glo, values classified in ranges.
Format: cell-based
Procedure: Test compounds were serially dilated with dimethyl sulfoxide, and 200 nL was then dispensed to a U-bottom 96-well plate using Labcyte Echo. […] The cell suspension was dispensed to a. plate containing a test compound at 100 μL per well and incubated at 37° C. in a 5% carbon dioxide gas incubator. 96 hours later, 80 μL of CellTiter-Glo (Promega) was added to each well and fluorescence was measured.

| SMILES | IC50 [µM] |
| --- | --- |
| COC[C@@H]1NC(=O)[C@H](CC(C)C)N(C)C(=O)C[C@@H](C(=O)N2CCCCC2)N(C)C(=O)[C@H](C2CCCCC2)N(C)C(=O)C2(CCCC2)NC(=O)[C@@H]2CCCN2C(=O)[C@H](CCc2ccc(C(F)(F)F)c(Cl)c2)NC(=O)CN(C)C(=O)[C@H](CC2CCCCC2)N(C)C(=O)CN(C)C(=O)CN(C)C1=O [Compound 148] ([NMeL]S(Me)[Sar][Sar][NMeCha][Sar][hPhe(3-Cl-4-CF3)]P[Ac5c][NMeChg][NMeD]-Piperidide; lactam N-11) | > 0.5 |
| CCCC[C@@H]1NC(=O)[C@H](Cc2cccc(I)c2)NC(=O)CN(C)C(=O)[C@H](Cc2ccc(OC)cc2)N(C)C(=O)[C@@H]2CCN2C(=O)CN(C)C(=O)[C@H]([C@@H](C)CC)NC(=O)[C@H](CC(C)C)N(C)C(=O)C[C@@H](C(=O)N2CCCCC2)N(C)C(=O)[C@H](CC(C)C)NC(=O)[C@](C)(Cc2ccccc2)N(C)C1=O [Compound 1058] ([NMeL]I[Sar][Aze][NMeY](Me)[Sar][Phe(3-I)][Nle][X51]L[NMeD]-Piperidide; lactam N-11) | > 0.5 |
| CC[C@H](C)[C@@H]1NC(=O)[C@H](C(C)C)N(C)C(=O)C[C@@H](C)NC(=O)[C@H](CC(C)C)N(C)C(=O)C2(CCCC2)NC(=O)[C@H](CC(C)C)N(C)C(=O)[C@H](CCc2ccc(C(F)(F)F)c(F)c2)NC(=O)CN(C)C(=O)[C@H](Cc2ccc(Cl)cc2)N(C)C(=O)[C@@H]2CCN2C(=O)CN(C)C1=O [Compound 418] (cyclo([Ac5c][NMeL][d(β3hA)][NMeV]I[Sar][Aze][NMePhe(4-Cl)][Sar][hPhe(3-F,4-CF3)][NMeL])) | > 0.5 |
| CC[C@H](C)[C@@H]1NC(=O)[C@H](CC(C)C)N(C)C(=O)C[C@@H](C(=O)N2CCCCC2)N(C)C(=O)[C@H](C2CCCCC2)N(C)C(=O)C2(CCCC2)NC(=O)[C@@H]2CCCCN2C(=O)[C@H](CCc2ccc(C(F)(F)F)c(Cl)c2)NC(=O)CN(C)C(=O)[C@H](CC2CCCCC2)N(C)C(=O)CN(C)C(=O)CN(C)C1=O [Compound 728] ([NMeL]I[Sar][Sar][NMeCha][Sar][hPhe(3-Cl-4-CF3)][Pip][Ac5c][NMeChg][NMeD]-Piperidide; lactam N-11) | > 0.5 |
| CC[C@H](C)[C@@H]1NC(=O)[C@H](CC(C)C)N(C)C(=O)C[C@@H](C(=O)N2CCCCC2)N(C)C(=O)[C@H](C(C)C)N(C)C(=O)C2(CCCC2)NC(=O)[C@@H]2CCCN2C(=O)[C@H](CCc2ccc(C(F)(F)F)c(Cl)c2)NC(=O)CN(C)C(=O)[C@H](Cc2ccccc2C#N)N(C)C(=O)CN(C)C(=O)CN(C)C1=O [Compound 935] ([NMeL]I[Sar][Sar][NMePhe(2-CN)][Sar][hPhe(3-Cl-4-CF3)]P[Ac5c][NMeV][NMeD]-Piperidide; lactam N-11) | > 0.5 |
| CC[C@H](C)[C@@H]1NC(=O)[C@H](CC(C)C)N(C)C(=O)C[C@@H](C)N(C)C(=O)[C@H](CC2CCC2)N(C)C(=O)C2(CCCC2)NC(=O)[C@@H]2CCCN2C(=O)[C@H](CCc2ccc(C(F)(F)F)c(Cl)c2)NC(=O)CN(C)C(=O)[C@H](CC2CCCCC2)N(C)C(=O)CN(C)C(=O)CN(C)C1=O [Compound 723] (cyclo([Ac5c][NMeCba][NMedβ3hAla][NMeL]I[Sar][Sar][NMeCha][Sar][hPhe(3-Cl-4-CF3)]P)) | > 0.5 |
| CC[C@H](C)[C@@H]1NC(=O)[C@H](CC(F)(F)F)N(C)C(=O)C[C@@H](C(=O)N2CCCC2)N(C)C(=O)[C@H](C2CCCCC2)N(C)C(=O)C2(CCCC2)NC(=O)[C@@H]2CC(F)(F)CN2C(=O)[C@H](CCc2ccc(C(F)(F)F)c(Cl)c2)NC(=O)CN(C)C(=O)[C@H](Cc2ccc(C(F)(F)F)cc2)N(C)C(=O)CN(C)C(=O)CN(C)C1=O [Compound 1196] ([NMeAbu(4,4,4-F3)]I[Sar][Sar][NMePhe(4-CF3)][Sar][hPhe(3-Cl-4-CF3)][Pro(4,4-F2)][Ac5c][NMeChg][NMeD]-Pyrrolidide; lactam N-11) | ≤ 0.02 |
| CC[C@H](C)[C@@H]1NC(=O)[C@H](CC(C)C)N(C)C(=O)C[C@@H](C(=O)N(C)C)N(C)C(=O)[C@H](C2CCCC2)N(C)C(=O)C2(CCCC2)NC(=O)[C@H](Cc2ccc(Cl)cc2)N(C)C(=O)[C@H](CCc2ccc(C(F)(F)F)c(Cl)c2)NC(=O)CN(C)C(=O)[C@H](CC2CCCCC2)N(C)C(=O)[C@@H]2CCN2C(=O)[C@H](C)N(C)C1=O [Compound 1063] ([NMeL]I[NMeA][Aze][NMeCha][Sar][hPhe(3-Cl-4-CF3)][NMePhe(4-Cl)][Ac5c][NMeGly(cPent)][NMeD]-NMe2; lactam N-11) | > 0.5 |
| CC[C@H](C)[C@@H]1NC(=O)[C@H](CC(C)C)N(C)C(=O)C[C@@H](C(=O)N2CCCCC2)N(C)C(=O)[C@H](C2CCCCC2)N(C)C(=O)C2(CCCC2)NC(=O)[C@@H]2Cc3ccccc3N2C(=O)[C@H](CCc2ccc(C(F)(F)F)c(Cl)c2)NC(=O)CN(C)C(=O)[C@H](CC2CCCCC2)N(C)C(=O)CN(C)C(=O)CN(C)C1=O [Compound 514] ([NMeL]I[Sar][Sar][NMeCha][Sar][hPhe(3-Cl-4-CF3)][X72][Ac5c][NMeChg][NMeD]-Piperidide; lactam N-11) | > 0.5 |
| CC[C@H](C)[C@@H]1NC(=O)[C@H](C)N(C)C(=O)C[C@@H](C(=O)N2CCCCC2)N(C)C(=O)[C@H](C(C)C)N(C)C(=O)C2(CCCC2)NC(=O)[C@@H]2CCCN2C(=O)[C@H](CCc2ccc(C(F)(F)F)c(Cl)c2)NC(=O)[C@@H](C)N(C)C(=O)[C@H](Cc2ccc(F)cc2)N(C)C(=O)[C@@H]2CCCN2C(=O)CN(C)C1=O [Compound 1853] ([NMeA]I[Sar]P[NMePhe(4-F)][dNMeA][hPhe(3-Cl-4-CF3)]P[Ac5c][NMeV][NMeD]-Piperidide; lactam N-11) | > 0.5 |
